Laboratory results published in ChEMBL document CHEMBL6083178, “Chemistry and pharmacological aspects of furanoid cannabinoids and related compounds: Is furanoid cannabinoids open a new dimension towards the non-psychoactive cannabinoids?” (Eur J Med Chem, 2024).

Columns and labels:
[1] = molecular target: Cannabinoid receptor 1 (Mus musculus, UniProt P47746); test: Displacement of [3H]CP55940 from mouse brain CB1 receptor assessed as inhibition constant
[2] = molecular target: T1, Cannabinoid receptor 1 (Homo sapiens, UniProt P21554); test: Displacement of [3H]CP55940 from CB1 receptor (unknown origin) assessed as inhibition constant measured after 90 mins
[3] = molecular target: T2, Cannabinoid receptor 2 (Homo sapiens, UniProt P34972); test: Binding affinity to CB2 receptor (unknown origin) assessed as inhibition constant measured after 90 mins
[4] = molecular target: T1, Cannabinoid receptor 1; test: Displacement of [3H]CP55940 from human CB1 receptor assessed as inhibition constant
[5] = molecular target: T2, Cannabinoid receptor 2; test: Displacement of [3H]HU-243 from human CB2 receptor assessed as inhibition constant

T1 sequence (P21554 whole entry): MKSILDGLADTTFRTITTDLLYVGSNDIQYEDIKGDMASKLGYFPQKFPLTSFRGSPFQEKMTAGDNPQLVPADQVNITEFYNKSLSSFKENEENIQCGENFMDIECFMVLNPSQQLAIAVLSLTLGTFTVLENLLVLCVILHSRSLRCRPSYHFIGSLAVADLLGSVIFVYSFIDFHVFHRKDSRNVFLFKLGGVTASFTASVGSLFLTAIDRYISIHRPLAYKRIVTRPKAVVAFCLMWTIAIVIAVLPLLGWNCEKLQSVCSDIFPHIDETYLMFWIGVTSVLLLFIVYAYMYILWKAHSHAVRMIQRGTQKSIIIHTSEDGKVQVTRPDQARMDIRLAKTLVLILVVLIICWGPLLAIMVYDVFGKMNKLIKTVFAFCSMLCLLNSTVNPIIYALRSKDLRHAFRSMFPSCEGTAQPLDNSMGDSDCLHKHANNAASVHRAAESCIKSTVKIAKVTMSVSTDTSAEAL
T2 sequence (P34972 whole entry): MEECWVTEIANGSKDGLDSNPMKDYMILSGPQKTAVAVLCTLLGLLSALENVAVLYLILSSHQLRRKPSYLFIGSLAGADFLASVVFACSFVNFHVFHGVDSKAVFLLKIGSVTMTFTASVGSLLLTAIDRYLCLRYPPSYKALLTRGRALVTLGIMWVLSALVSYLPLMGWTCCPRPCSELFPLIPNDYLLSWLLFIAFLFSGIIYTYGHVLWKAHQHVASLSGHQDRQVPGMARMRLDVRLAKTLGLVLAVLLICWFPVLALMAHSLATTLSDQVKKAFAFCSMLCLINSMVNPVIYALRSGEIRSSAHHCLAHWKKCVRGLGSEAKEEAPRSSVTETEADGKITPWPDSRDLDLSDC
Cannabinoid receptor 1 (Mus musculus, UniProt P47746), sequence (P47746 whole entry): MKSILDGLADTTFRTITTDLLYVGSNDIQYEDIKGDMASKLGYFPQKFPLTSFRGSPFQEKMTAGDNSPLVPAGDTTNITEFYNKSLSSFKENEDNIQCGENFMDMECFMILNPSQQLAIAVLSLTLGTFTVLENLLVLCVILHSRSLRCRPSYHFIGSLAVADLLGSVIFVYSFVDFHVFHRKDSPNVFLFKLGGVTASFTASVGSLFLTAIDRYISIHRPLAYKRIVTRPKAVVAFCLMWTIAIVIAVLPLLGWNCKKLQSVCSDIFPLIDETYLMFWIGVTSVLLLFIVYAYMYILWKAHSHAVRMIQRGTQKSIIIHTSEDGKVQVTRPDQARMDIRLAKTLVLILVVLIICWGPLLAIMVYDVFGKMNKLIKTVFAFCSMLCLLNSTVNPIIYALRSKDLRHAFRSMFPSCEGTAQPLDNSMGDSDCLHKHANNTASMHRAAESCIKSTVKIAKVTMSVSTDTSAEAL

C=C(C)[C@@H]1CCC(C)=C[C@H]1c1c(O)cc(CCCCC)cc1O [CANNABIDIOL]
Ki [1]: 4.4 µM

CCCCCc1cc(O)c2c(c1)OC(C)(CCC=C(C)C)C=C2 (configuration not stated) [CANNABICHROMENE]
Ki [2]: 0.7 µM | Ki [3]: 0.2 µM

CCCc1cc(O)c2c(c1)OC(C)(C)[C@@H]1CCC(C)=C[C@@H]21 [TETRAHYDROCANNABIVARIN]
Ki [4]: 0.08 µM

CCCCCc1cc(O)c(C/C=C(\C)CCC=C(C)C)c(O)c1 [CANNABIGEROL]
Ki [4]: 0.4 µM | Ki [5]: 0.1 µM

CCCCCc1cc(O)c2c(c1)OC(C)(C)c1ccc(C)cc1-2 [CANNABINOL]
Ki [4]: 0.1 µM
